{"source": "patent US20250263370A1", "about": "(Tay Therapeutics Limited, priority 2022, published 2025)", "test_system": "collagen-induced arthritis", "test": "Collagen-induced arthritis (CIA) model in rats: body weight, paw volume, clinical scores, clinical observations; on Average detailed clinical score, left hind limb: key of the grades not given here; on Average detailed clinical score, right hind limb: key of the grades not given here; on Detailed Clinical Scores, left forelimb: key of the grades not given here; on Detailed Clinical Scores, left hind limb: key of the grades not given here; on Detailed Clinical Scores, right forelimb: key of the grades not given here; on Detailed Clinical Scores, right hind limb: key of the grades not given here; on Detailed Clinical Scores, score: key of the grades not given here; on Detailed Clinical Scores: left forelimb: key of the grades not given here; on Detailed Clinical Scores: left hind limb: key of the grades not given here; on Detailed Clinical Scores: right forelimb: key of the grades not given here; on Detailed Clinical Scores: right hind limb: key of the grades not given here; on Detailed Clinical Scores: score: key of the grades not given here; on Mean overall clinical score ± SD: key of the grades not given here; on overall clinical score: key of the grades not given here", "conditions": "for Average detailed clinical score, left forelimb / Average detailed clinical score, left hind limb / Average detailed clinical score, right forelimb / Average detailed clinical score, right hind limb / Average detailed clinical score, score / Mean overall clinical score ± SD / Detailed Clinical Scores, left forelimb / Detailed Clinical Scores, left hind limb / Detailed Clinical Scores, right forelimb / Detailed Clinical Scores, right hind limb / Detailed Clinical Scores, score / Overall clinical score / Detailed Clinical Scores: left forelimb / Detailed Clinical Scores: left hind limb / Detailed Clinical Scores: right forelimb / Detailed Clinical Scores: right hind limb / Detailed Clinical Scores: score: CIA rats; for Detailed Clinical Scores, left forelimb / Detailed Clinical Scores, left hind limb / Detailed Clinical Scores, right forelimb / Detailed Clinical Scores, right hind limb / Detailed Clinical Scores, score / Detailed Clinical Scores: left forelimb / Detailed Clinical Scores: left hind limb / Detailed Clinical Scores: right forelimb / Detailed Clinical Scores: right hind limb / Detailed Clinical Scores: score: individual animals ID 1-8; for Overall clinical score: individual animals #1-8; for Mean animal paw volume ± SD: group mean; for Animal paw volume percent change: individual animals", "note": "Values joined by “and” are separate entries in the source; they are usually repeats but may differ in a detail not shown here. Equal values may be shown once.", "procedure": "Prior to be randomly placed in treatment groups, animals were weighed, and paw volume was measured. Once randomly assigned to treatment groups, on Day 0, animals in groups 2-9 were immunized by subcutaneous injection at the base of the tail.\nThe immunization comprised 100 μL of the CFA+Collagen emulsion (prepared according to the method in Experimental Method A). Animals in group one received no immunization. Seven days after the first injection, animals in groups 2-9 received a booster immunization comprising 200 μL of the IFA+Collagen emulsion (prepared according to the method in Experimental Method A).\nStarting on Day 0, animals in group 1 and 2 were administered daily doses of the vehicle per os (P.O.) for 21 days. […] The twice daily doses for animals in groups 4-9 were 8 hours apart (e.g., the first dose at 8:00 AM and the second dose at 4:00 PM).\nBody weight of all animals was recorded daily for the 21-day period. Blind clinical scores on all four limbs were conducted for all animals in the study. Animals were assessed prior to receiving their first dose of the compound or control, and scores for each limb were combined to a total daily score for each animal. Clinical score assessments were performed on Day 0, 6, 12, 13, 14, 15, 18, 19, and 21 (for a total of 9 daily scores).\nPaw volume was recorded for each animal on Day 0, 6, 12, 13, 14, 15, 18, 19, and 21 (for a total of 9 measurements). To measure paw volume, animals were gently held with one hand while the hind paw was placed into a plethysmometer with the other hand. Lipid displacement by the paw was recorded and used to represent paw volume.\nAll data measured and recorded was analyzed using SPSS 16.0 software. Groups were compared using one-way ANOVA and significance was set at p<0.05."}
{"smiles": "C[C@@H]1C[C@H]2[C@@H]3CCC4=CC(=O)C=C[C@]4(C)[C@@]3(F)[C@@H](O)C[C@]2(C)[C@@]1(O)C(=O)CO", "note": "[dexamethasone]", "values": [{"measurement": "Average detailed clinical score, left forelimb", "setting": "Day 13", "result": 0.00}, {"measurement": "Average detailed clinical score, left hind limb", "setting": "Day 13", "result": 0.00}, {"measurement": "Average detailed clinical score, right forelimb", "setting": "Day 13", "result": 0.00}, {"measurement": "Average detailed clinical score, right hind limb", "setting": "Day 13", "result": 0.00}, {"measurement": "Average detailed clinical score, score", "setting": "Day 13", "result": 0.00}, {"measurement": "Mean overall clinical score ± SD", "setting": "Day 13", "result": "0 ± 0"}, {"measurement": "Detailed Clinical Scores, left forelimb", "setting": "Day 13", "result": 0}, {"measurement": "Detailed Clinical Scores, left hind limb", "setting": "Day 13", "result": 0}, {"measurement": "Detailed Clinical Scores, right forelimb", "setting": "Day 13", "result": 0}, {"measurement": "Detailed Clinical Scores, right hind limb", "setting": "Day 13", "result": 0}, {"measurement": "Detailed Clinical Scores, score", "setting": "Day 13", "result": 0}, {"measurement": "Overall clinical score", "setting": "Day 13", "result": 0}, {"measurement": "Mean animal paw volume ± SD", "setting": "Day 14, L paw", "result": 1.27, "unit": "mL"}, {"measurement": "Animal paw volume percent change", "setting": "Day 14, L paw", "result": "−8.18% and −5.36% and 0.00% and −4.53% and −1.54% and −5.00% and −3.75% and −8.46%"}, {"measurement": "Mean animal paw volume ± SD", "setting": "Day 14, R paw", "result": 1.26, "unit": "mL"}, {"measurement": "Animal paw volume percent change", "setting": "Day 14, R paw", "result": "−5.62% and −2.70% and 0.00% and −8.92% and −2.33% and −7.72% and −5.17% and −8.06%"}, {"measurement": "Average detailed clinical score, left forelimb", "setting": "Day 14", "result": 0.00}, {"measurement": "Average detailed clinical score, left hind limb", "setting": "Day 14", "result": 0.00}, {"measurement": "Average detailed clinical score, right forelimb", "setting": "Day 14", "result": 0.00}, {"measurement": "Average detailed clinical score, right hind limb", "setting": "Day 14", "result": 0.00}, {"measurement": "Average detailed clinical score, score", "setting": "Day 14", "result": 0.00}, {"measurement": "Mean overall clinical score ± SD", "setting": "Day 14", "result": "0 ± 0"}, {"measurement": "Detailed Clinical Scores, left forelimb", "setting": "Day 14", "result": 0}, {"measurement": "Detailed Clinical Scores, left hind limb", "setting": "Day 14", "result": 0}, {"measurement": "Detailed Clinical Scores, right forelimb", "setting": "Day 14", "result": 0}, {"measurement": "Detailed Clinical Scores, right hind limb", "setting": "Day 14", "result": 0}, {"measurement": "Detailed Clinical Scores, score", "setting": "Day 14", "result": 0}, {"measurement": "Overall clinical score", "setting": "Day 14", "result": 0}, {"measurement": "Mean animal paw volume ± SD", "setting": "Day 15, L paw", "result": 1.26, "unit": "mL"}, {"measurement": "Animal paw volume percent change", "setting": "Day 15, L paw", "result": "−8.92% and −7.28% and −2.17%"}, {"measurement": "Mean animal paw volume ± SD", "setting": "Day 15, R paw", "result": 1.26, "unit": "mL"}, {"measurement": "Animal paw volume percent change", "setting": "Day 15, R paw", "result": "−6.74% and −4.25% and −1.45%"}, {"measurement": "Average detailed clinical score, left forelimb", "setting": "Day 15", "result": 0.00}, {"measurement": "Average detailed clinical score, left hind limb", "setting": "Day 15", "result": 0.00}, {"measurement": "Average detailed clinical score, right forelimb", "setting": "Day 15", "result": 0.00}, {"measurement": "Average detailed clinical score, right hind limb", "setting": "Day 15", "result": 0.00}, {"measurement": "Average detailed clinical score, score", "setting": "Day 15", "result": 0.00}, {"measurement": "Mean overall clinical score ± SD", "setting": "Day 15", "result": "0 ± 0"}, {"measurement": "Detailed Clinical Scores: left forelimb", "setting": "Day 15", "result": 0}, {"measurement": "Detailed Clinical Scores: left hind limb", "setting": "Day 15", "result": 0}, {"measurement": "Detailed Clinical Scores: right forelimb", "setting": "Day 15", "result": 0}, {"measurement": "Detailed Clinical Scores: right hind limb", "setting": "Day 15", "result": 0}, {"measurement": "Detailed Clinical Scores: score", "setting": "Day 15", "result": 0}, {"measurement": "Overall clinical score", "setting": "Day 15", "result": 0}, {"measurement": "Mean animal paw volume ± SD", "setting": "Day 18, L paw", "result": 1.29, "unit": "mL"}, {"measurement": "Animal paw volume percent change", "setting": "Day 18, L paw", "result": "−5.20% and −6.51% and 4.33%"}, {"measurement": "Mean animal paw volume ± SD", "setting": "Day 18, R paw", "result": 1.29, "unit": "mL"}, {"measurement": "Animal paw volume percent change", "setting": "Day 18, R paw", "result": "−4.49% and −4.63% and 4.36%"}, {"measurement": "Average detailed clinical score, left forelimb", "setting": "Day 18", "result": 0.00}, {"measurement": "Average detailed clinical score, left hind limb", "setting": "Day 18", "result": 0.00}, {"measurement": "Average detailed clinical score, right forelimb", "setting": "Day 18", "result": 0.00}, {"measurement": "Average detailed clinical score, right hind limb", "setting": "Day 18", "result": 0.00}, {"measurement": "Average detailed clinical score, score", "setting": "Day 18", "result": 0.00}, {"measurement": "Mean overall clinical score ± SD", "setting": "Day 18", "result": "0 ± 0"}, {"measurement": "Detailed Clinical Scores: left forelimb", "setting": "Day 18", "result": 0}, {"measurement": "Detailed Clinical Scores: left hind limb", "setting": "Day 18", "result": 0}, {"measurement": "Detailed Clinical Scores: right forelimb", "setting": "Day 18", "result": 0}, {"measurement": "Detailed Clinical Scores: right hind limb", "setting": "Day 18", "result": 0}, {"measurement": "Detailed Clinical Scores: score", "setting": "Day 18", "result": 0}, {"measurement": "Overall clinical score", "setting": "Day 18", "result": 0}, {"measurement": "Mean animal paw volume ± SD", "setting": "Day 19, L paw", "result": 1.29, "unit": "mL"}, {"measurement": "Animal paw volume percent change", "setting": "Day 19, L paw", "result": "−5.20% and −6.90%"}, {"measurement": "Mean animal paw volume ± SD", "setting": "Day 19, R paw", "result": 1.28, "unit": "mL"}, {"measurement": "Animal paw volume percent change", "setting": "Day 19, R paw", "result": "−5.24% and −6.18%"}, {"measurement": "Average detailed clinical score, left forelimb", "setting": "Day 19", "result": 0.00}, {"measurement": "Average detailed clinical score, left hind limb", "setting": "Day 19", "result": 0.00}, {"measurement": "Average detailed clinical score, right forelimb", "setting": "Day 19", "result": 0.00}, {"measurement": "Average detailed clinical score, right hind limb", "setting": "Day 19", "result": 0.00}, {"measurement": "Average detailed clinical score, score", "setting": "Day 19", "result": 0.00}, {"measurement": "Mean overall clinical score ± SD", "setting": "Day 19", "result": "0 ± 0"}, {"measurement": "Detailed Clinical Scores: left forelimb", "setting": "Day 19", "result": 0}, {"measurement": "Detailed Clinical Scores: left hind limb", "setting": "Day 19", "result": 0}, {"measurement": "Detailed Clinical Scores: right forelimb", "setting": "Day 19", "result": 0}, {"measurement": "Detailed Clinical Scores: right hind limb", "setting": "Day 19", "result": 0}, {"measurement": "Detailed Clinical Scores: score", "setting": "Day 19", "result": 0}, {"measurement": "Overall clinical score", "setting": "Day 19", "result": 0}, {"measurement": "Mean animal paw volume ± SD", "setting": "Day 21, L paw", "result": 1.28, "unit": "mL"}, {"measurement": "Animal paw volume percent change", "setting": "Day 21, L paw", "result": "−6.32% and −6.90%"}, {"measurement": "Mean animal paw volume ± SD", "setting": "Day 21, R paw", "result": 1.29, "unit": "mL"}, {"measurement": "Animal paw volume percent change", "setting": "Day 21, R paw", "result": "−5.99% and −6.18%"}, {"measurement": "Average detailed clinical score, left forelimb", "setting": "Day 21", "result": 0.00}, {"measurement": "Average detailed clinical score, left hind limb", "setting": "Day 21", "result": 0.00}, {"measurement": "Average detailed clinical score, right forelimb", "setting": "Day 21", "result": 0.00}, {"measurement": "Average detailed clinical score, right hind limb", "setting": "Day 21", "result": 0.00}, {"measurement": "Average detailed clinical score, score", "setting": "Day 21", "result": 0.00}, {"measurement": "Mean overall clinical score ± SD", "setting": "Day 21", "result": "0 ± 0"}, {"measurement": "Detailed Clinical Scores: left forelimb", "setting": "Day 21", "result": 0}, {"measurement": "Detailed Clinical Scores: left hind limb", "setting": "Day 21", "result": 0}, {"measurement": "Detailed Clinical Scores: right forelimb", "setting": "Day 21", "result": 0}, {"measurement": "Detailed Clinical Scores: right hind limb", "setting": "Day 21", "result": 0}, {"measurement": "Detailed Clinical Scores: score", "setting": "Day 21", "result": 0}, {"measurement": "Overall clinical score", "setting": "Day 21", "result": 0}]}
